target: T1, HCV NS5B polymerase (NS5BΔCT21) (Hepatitis C virus genotype 1b, UniProt Q9WMX2); experiment: HCV NS5B Polymerase Inhibition Assay; type: biochemical, HCV-Con 1 isolate
T1 construct: A soluble C-terminal 21-amino acid truncated NS5B enzyme form; polyhistidine (C); made in house; host or cells: Escherichia coli
Source text: A chemically synthesized 75-mer version, designated DCoH75, whose sequence matches the 3′-end of D-RNA, and DCoH75ddC, where the 3′-terminal cytidine of DCoH75 is replaced by dideoxycytidine, were used for assaying the NS5B enzyme activity as described in Ferrari et al., 12th International Symposium on HCV and Related Viruses, P-306 (2005). The sequence of the template RNA was: 5′-UGUGCCGGUCUUUCUGAACGGGAUAUAAACCUGGCCAGCUUCAUCGAACAAGUUGCCGUGUCUAUGACAUAGAUC-3′ (SEQ ID NO: 1). A soluble C-terminal 21-amino acid truncated NS5B enzyme form (NS5BΔCT21, from HCV-Con 1 isolate, genotype 1b, Genbank accession number AJ238799) was produced and purified from Escherichia coli as C-terminal polyhistidine-tagged fusion protein as described in Ferrari et al., J. Virol. 73:1649-1654 (1999). A typical assay contained 20 mM Hepes pH 7.3, 10 mM MgCl2, 60 mM NaCl, 100 μg/ml BSA, 20 units/ml RNasin, 7.5 mM DTT, 0.1 μM ATP/GTP/UTP, 0.026 μM CTP, 0.25 mM GAU, 0.03 μM RNA template, 20 μCi/ml [^33P]-CTP, 2% DMSO, and 30 or 150 nM NS5B enzyme. Reactions were incubated at 22° C. for 2 hours, then stopped by adding 150 mM EDTA, washed in DE81 filter plate in 0.5M di-basic sodium phosphate buffer, pH 7.0, and counted using Packard TopCount after the addition of scintillation cocktail. Polynucleotide synthesis was monitored by the incorporation of radiolabeled CTP. The effect of the Compounds of Formula (I) on the polymerase activity was evaluated by adding various concentrations of a Compound of Formula (I), typically in 10 serial 2-fold dilutions, to the assay mixture. The starting concentrations ranged from 200 μM to 1 μM. An IC50 value for the inhibitor, defined as the compound concentration that provides 50% inhibition of polymerase activity, was determined by fitting the cpm data to the Hill equation Y=100/(1+10̂((LogIC50−X)*HillSlope)), where X is the logarithm of compound concentration, and Y is the % inhibition. Ferrari et al., 12th International Symposium on HCV and Related Viruses, P-306 (2005) described in detail this assay procedure. It should be noted that such an assay as described is exemplary and not intended to limit the scope of the invention. The skilled practitioner can appreciate that modifications including but not limited to RNA template, primer, nucleotides, NS5B polymerase form, buffer composition, can be made to develop similar assays that yield the same result for the efficacy of the compounds and compositions described in the invention.
NS5B polymerase inhibition data was calculated for the compounds of the present invention using this method and is set forth in the table below.

SMILES	IC50 [nM]
Cc1nccc(N2CCN(c3cc(C(C)C)ccc3NC(=O)c3cccnc3)CC2)n1 [Compound 42]	160
Cc1ncoc1C(=O)Nc1ccc(C(C)C)cc1N1CCN(c2cnccn2)CC1 [Compound 28]	14000
Cc1cncc(N2CCN(c3cc(C(C)C)ccc3NC(=O)c3cccnc3)CC2)n1 [Compound 40]	500
CC(C)c1ccc(NC(=O)c2cccnc2)c(N2CCN(c3ccncn3)CC2)c1 [Compound 41]	560
CC(C)c1ccc(NC(=O)c2cnccc2C(F)(F)F)c(N2CCN(c3cnccn3)CC2)c1 [Compound 26]	> 20000
CSCc1nccc(N2CCN(c3cc(C(C)C)ccc3NC(=O)c3cccnc3C)CC2)n1 [Compound 58]	27
CC(C)c1ccc(NC(=O)C2CCCNC2)c(N2CCN(c3cnccn3)CC2)c1 (centres unmarked) [Compound 32]	> 200000
CC(C)c1ccc(NC(=O)c2ccnnc2)c(N2CCN(c3cnccn3)CC2)c1 [Compound 35]	> 20000
